Laboratory results taken from PMC8037910, “Effect of Chronic Administration of 5-(3-chlorophenyl)-4-Hexyl-2,4 -Dihydro-3H-1,2,4-Triazole-3-Thione (TP-315)—A New Anticonvulsant Drug Candidate—On Living Organisms” (International Journal of Molecular Sciences, 2021).
Read-outs that look alike come from different tables or passages of the source.

How the values were obtained:
[1] = target: batrachotoxin-binding site on voltage-gated sodium channels; design: method as in PMID 25226229, PMID 30594731, PMID 28824309; conditions: read-out: Affinity towards Batrachotoxin-Binding Site on Sodium Channels IC50 ± SEM; cited from earlier work
mice = tested on: mice; design: method as in PMID 23291122, PMID 25226229, PMID 25090118; unit not given here; conditions: chimney test, cited from earlier work
Albino Swiss mice = assay: Biochemical parameters of liver and renal function in serum after chronic administration; assay type: in vivo; conditions: 47.6 mg/kg i.p. for 14 days, unpaired t-test p > 0.05
Description: (§1) The experiments were carried out on adult male Albino Swiss mice weighing 20 ± 5 g. […] The mice from the control group (8 mice) received 0.9% NaCl solution i.p. once daily for 14 days.
(§2) After completion of the experimental procedure (on the 15th day—24h after the last injection), the animals were decapitated. Their livers and kidneys were collected for histopathological examination, while blood was drawn for biochemical and morphological tests and for HPLC-FL determination of TP-315 in serum.
For the determination of biochemical parameters (ALT, AST, GGT, creatinine, urea), whole blood was collected in clotting activator tubes (Sarstadt, Nümbrecht, Germany). To obtain serum, blood tubes were centrifuged at 4200 RPM for 10 min. Biochemical determinations were performed on an ERBA XL 640 analyzer (ERBA Mannheim, Germany) according to the manufacturer’s standard procedure. Whole blood for the determination of morphological parameters was collected in ethylenediaminetetraacetic acid (EDTA) tubes (Sarstadt, Nümbrecht, Germany). Morphological parameters were determined on the MYTHIC 18 Cormay analyzer (Cormay, Lublin, Poland) according to the manufacturer’s standard procedure.

[2] = Quantification of TP-315 in mouse serum by HPLC-FL; assay type: in vivo; conditions: male, Albino Swiss, ip, mice, 47.6 mg/kg i.p. for 14 days, 24 h after the last injection, mean ± SD, read-out: Mean measured concentration of TP-315 in the plasma of the mice
Description: as §1
as §2, with “serum. […]” for “serum.”
Serum samples for recovery study and quantification of the examined compound using the standard addition method were prepared by spiking 0.1 mL of TP-315 free serum or the serum of treated mice with 0.4 mL deionized water and 0.5 mL of the appropriate standard solution, providing a calibration range between 0.0125–0.05 mg/L (0.0125, 0.025, 0.0375, and 0.05 mg/L) and QC levels of 0.06, 0.12, and 0.18 mg/L. Investigated serum samples were treated in the same manner as the QCs. […]
The HPLC analysis was carried out using an Elite LaChrom HPLC Merck-Hitachi (Merck, Darmstadt, Germany) equipped with a fluorescence detector (L-2485U) and a column thermostat Jetstream 2 Plus (100375, Knauer). […] The fluorescence detection was performed at an excitation of 265 nm and an emission of 411 nm. […]

[3] = tested on: maximal electroshock-induced seizure (MES); design: method as in PMID 23291122, PMID 25226229, PMID 25090118; conditions: mice, cited from earlier work

SMILES: CCCCCCn1c(-c2cccc(Cl)c2)n[nH]c1=S [TP-315, 5-(3-Chlorophenyl)-4-hexyl-2,4-dihydro-3H-1,2,4-triazole-3-thione]
- IC50 [1]: 6.21 ± 0.8 µM
- Neurotoxicity in Chimney or Rotarod (†) Tests in Mice (mice; pretreatment time 15 min): 462.9 ± 20.0
- Neurotoxicity in Chimney or Rotarod (†) Tests in Mice (mice; pretreatment time 30 min): 462.9 ± 20.0
- Neurotoxicity in Chimney or Rotarod (†) Tests in Mice (mice; pretreatment time 60 min): 456.9 ± 19.7
- Neurotoxicity in Chimney or Rotarod (†) Tests in Mice (mice; pretreatment time 120 min): 448.1 ± 21.7
- ALT in serum vs control group (Albino Swiss mice): did not differ statistically significant
- AST in serum vs control group (Albino Swiss mice): did not differ statistically significant
- Creatinine concentration in serum vs control group (Albino Swiss mice): not statistically significant
- GGT in serum vs control group (Albino Swiss mice): did not differ statistically significant
- Urea concentration in serum vs control group (Albino Swiss mice): not statistically significant
- concentration at 24 h [2]: 14.5 ± 12.5 ng/mL
- Anticonvulsant Activity in MES Test ED50 ± S.E. ([3]; pretreatment time 15 min): 47.6 ± 3.8 mg/kg
- Anticonvulsant Activity in MES Test ED50 ± S.E. ([3]; pretreatment time 30 min): 68.3 ± 10.3 mg/kg
- Anticonvulsant Activity in MES Test ED50 ± S.E. ([3]; pretreatment time 60 min): 98.1 ± 16.4 mg/kg
- Anticonvulsant Activity in MES Test ED50 ± S.E. ([3]; pretreatment time 120 min): 159.7 ± 21.7 mg/kg
